Assay results taken from ChEMBL document CHEMBL5634139, “Novel substituted 4-(Arylethynyl)-Pyrrolo[2,3-d]pyrimidines negative allosteric modulators (NAMs) of the metabotropic glutamate receptor subtype 5 (mGlu5) Treat depressive disorder in mice” (Eur J Med Chem, 2023).
The source made the active and inactive calls. The rule behind the calls is not given here.

What was measured:
[1] = biological target: Metabotropic glutamate receptor 5 (Rattus norvegicus, UniProt P31424); experiment: Negative allosteric modulation of rat mGluR5 expressed in HEK293 assessed as decrease in intracellular calcium incubated for 30 mins by Fluo-6 calcium dye based FLIPR assay; format: functional, cell-based
Sequence of Metabotropic glutamate receptor 5 (P31424 whole entry): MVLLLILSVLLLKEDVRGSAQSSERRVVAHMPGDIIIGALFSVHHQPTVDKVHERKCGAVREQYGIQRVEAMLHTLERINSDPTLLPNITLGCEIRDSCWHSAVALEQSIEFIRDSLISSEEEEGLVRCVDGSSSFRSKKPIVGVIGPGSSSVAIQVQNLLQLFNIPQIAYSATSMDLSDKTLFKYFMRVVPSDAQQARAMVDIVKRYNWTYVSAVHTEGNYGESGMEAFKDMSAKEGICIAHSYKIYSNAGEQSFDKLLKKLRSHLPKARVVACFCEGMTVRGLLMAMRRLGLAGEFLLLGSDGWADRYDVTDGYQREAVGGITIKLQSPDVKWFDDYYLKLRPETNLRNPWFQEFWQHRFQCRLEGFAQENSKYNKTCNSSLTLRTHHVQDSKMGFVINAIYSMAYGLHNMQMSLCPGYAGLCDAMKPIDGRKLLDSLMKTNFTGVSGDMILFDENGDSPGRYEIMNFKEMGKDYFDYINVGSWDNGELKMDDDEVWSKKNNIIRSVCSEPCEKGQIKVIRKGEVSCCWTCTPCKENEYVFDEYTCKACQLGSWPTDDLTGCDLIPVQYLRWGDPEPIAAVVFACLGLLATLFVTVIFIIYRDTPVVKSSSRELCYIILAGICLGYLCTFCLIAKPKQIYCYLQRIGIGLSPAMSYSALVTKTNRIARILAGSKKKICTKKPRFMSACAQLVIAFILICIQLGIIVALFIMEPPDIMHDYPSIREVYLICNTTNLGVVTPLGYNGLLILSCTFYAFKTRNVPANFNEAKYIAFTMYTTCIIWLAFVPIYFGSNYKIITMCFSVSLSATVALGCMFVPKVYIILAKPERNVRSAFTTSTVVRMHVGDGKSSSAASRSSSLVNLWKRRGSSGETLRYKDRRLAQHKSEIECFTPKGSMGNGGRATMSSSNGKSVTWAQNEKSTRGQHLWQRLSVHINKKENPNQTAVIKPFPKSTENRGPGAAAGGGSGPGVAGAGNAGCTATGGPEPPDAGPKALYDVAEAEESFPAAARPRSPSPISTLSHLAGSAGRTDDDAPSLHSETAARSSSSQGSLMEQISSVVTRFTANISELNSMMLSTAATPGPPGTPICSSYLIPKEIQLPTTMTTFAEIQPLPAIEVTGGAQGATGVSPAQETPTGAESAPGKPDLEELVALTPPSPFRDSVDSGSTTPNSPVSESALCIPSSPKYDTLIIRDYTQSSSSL

Mus musculus [2] = experiment: Antidepressant activity in chronic unpredictable mild stress induced depression C57BL/6J mouse model assessed as change in total distance travelled at 5 to 20 mg/kg,IG administration for 3 days by open field test; format: functional, organism-based; settings: dose 5-20 mg/kg, time 3.0 day
Mus musculus [3] = experiment: Antidepressant activity in chronic unpredictable mild stress induced depression C57BL/6J mouse model assessed as increase in frequency entering the central area at 10 mg/kg,IG administration for 3 days by open field test; format: functional, organism-based; settings: time 3.0 day
Mus musculus [4] = experiment: Antidepressant activity in chronic unpredictable mild stress induced depression C57BL/6J mouse model assessed as increase in time spent in central area at 10 mg/kg,IG administration for 3 days by open field test; format: functional, organism-based; settings: time 3.0 day
Mus musculus [5] = experiment: Antidepressant activity in chronic unpredictable mild stress induced depression C57BL/6J mouse model assessed as increase in frequency entering the central area at 20 mg/kg,IG administration for 3 days by open field test; format: functional, organism-based; settings: time 3.0 day
Mus musculus [6] = experiment: Antidepressant activity in chronic unpredictable mild stress induced depression C57BL/6J mouse model assessed as increase in time spent in central area at 20 mg/kg,IG administration for 3 days by open field test; format: functional, organism-based; settings: time 3.0 day
Mus musculus [7] = experiment: Antidepressant activity in chronic unpredictable mild stress induced depression C57BL/6J mouse model assessed as increase in body weight at 5 to 20 mg/kg,IG administration for 3 days; format: functional, organism-based; settings: dose 5-20 mg/kg, time 3.0 day
Mus musculus [8] = experiment: Antidepressant activity in chronic unpredictable mild stress induced depression C57BL/6J mouse model assessed as decrease in immobility time at 5 to 20 mg/kg,IG administration for 3 days by forced swimming test; format: functional, organism-based; settings: dose 5-20 mg/kg, time 3.0 day
Mus musculus [9] = experiment: Antidepressant activity in chronic unpredictable mild stress induced depression C57BL/6J mouse model assessed as decrease in immobility time at 5 to 20 mg/kg,IG administration for 3 days by tail suspension test; format: functional, organism-based; settings: dose 5-20 mg/kg, time 3.0 day
Mus musculus [10] = experiment: Antidepressant activity in chronic unpredictable mild stress induced depression C57BL/6J mouse model assessed as downregulation of CORT level in peripheral serum at 10 mg/kg,IG administration for 3 days by ELISA; format: functional, organism-based; settings: time 3.0 day
Mus musculus [11] = experiment: Antidepressant activity in chronic unpredictable mild stress induced depression C57BL/6J mouse model assessed as downregulation of CORT level in peripheral serum at 20 mg/kg,IG administration for 3 days by ELISA; format: functional, organism-based; settings: time 3.0 day
Mus musculus [12] = experiment: Antidepressant activity in chronic unpredictable mild stress induced depression C57BL/6J mouse model assessed as upregulation of 5-HT level in peripheral serum at 20 mg/kg,IG administration for 3 days by ELISA; format: functional, organism-based; settings: time 3.0 day
Mus musculus [13] = experiment: Antidepressant activity in chronic unpredictable mild stress induced depression C57BL/6J mouse model assessed as upregulation of PKA phosphorylation in hippocampus at 20 mg/kg,IG administration for 3 days by Western blotting analysis; format: functional, organism-based; settings: time 3.0 day
Mus musculus [14] = experiment: Antidepressant activity in chronic unpredictable mild stress induced depression C57BL/6J mouse model assessed as upregulation of BDNF expression in hippocampus at 10 mg/kg,IG administration for 3 days by Western blotting analysis; format: functional, organism-based; settings: time 3.0 day
Mus musculus [15] = experiment: Antidepressant activity in chronic unpredictable mild stress induced depression C57BL/6J mouse model assessed as upregulation of BDNF expression in hippocampus at 20 mg/kg,IG administration for 3 days by Western blotting analysis; format: functional, organism-based; settings: time 3.0 day
Mus musculus [16] = experiment: Antidepressant activity in chronic unpredictable mild stress induced depression C57BL/6J mouse model assessed as upregulation of TrkB phosphorylation in hippocampus at 10 mg/kg,IG administration for 3 days by Western blotting analysis; format: functional, organism-based; settings: time 3.0 day
Mus musculus [17] = experiment: Antidepressant activity in chronic unpredictable mild stress induced depression C57BL/6J mouse model assessed as upregulation of TrkB phosphorylation in hippocampus at 20 mg/kg,IG administration for 3 days by Western blotting analysis; format: functional, organism-based; settings: time 3.0 day
Mus musculus [18] = experiment: Antidepressant activity in chronic unpredictable mild stress induced depression C57BL/6J mouse model assessed as upregulation of GluA1 expression in hippocampus at 5 to 20 mg/kg,IG administration for 3 days by Western blotting analysis; format: functional, organism-based; settings: dose 5-20 mg/kg, time 3.0 day
Mus musculus [19] = experiment: Antidepressant activity in chronic unpredictable mild stress induced depression C57BL/6J mouse model assessed as upregulation of GluA2 expression in hippocampus at 5 to 20 mg/kg,IG administration for 3 days by Western blotting analysis; format: functional, organism-based; settings: dose 5-20 mg/kg, time 3.0 day
[20] = Toxicity in chronic unpredictable mild stress induced depression C57BL/6J mouse model assessed as change in creatine kinase level in heart at 40 mg/kg,IG administration for 3 days by ELISA; format: organism-based; settings: in vivo, po, 72 h, time 3 day
[21] = Toxicity in chronic unpredictable mild stress induced depression C57BL/6J mouse model assessed as change in AST level in liver at 40 mg/kg,IG administration for 3 days by ELISA; format: organism-based; settings: in vivo, po, 72 h, time 3 day
[22] = Toxicity in chronic unpredictable mild stress induced depression C57BL/6J mouse model assessed as change in ALT level in liver at 40 mg/kg,IG administration for 3 days by ELISA; format: organism-based; settings: in vivo, po, 72 h, time 3 day

## Cc1ccc(C#Cc2ncnc3c2cc(C(=O)Nc2ccc(F)cc2)n3C)cc1
[1]
  IC50: 1010 nM

## Cn1c(C(=O)Nc2ccc(Cl)c(Cl)c2)cc2c(C#Cc3ccccc3)ncnc21
[1]
  IC50: 2030 nM

## COc1ccc(C#Cc2ncnc3c2cc(C(=O)Nc2ccc(C)cc2)n3C)cc1
[1]
  IC50: 241 nM

## Cc1ccc(NC(=O)c2cc3c(C#Cc4ccccc4)ncnc3n2C)cc1
[1]
  IC50: 38.9 nM

## Cc1nc(C#Cc2ncnc3c2cc(C(=O)Nc2ccccc2)n3C)cs1
[1]
  IC50: 2280 nM

## COc1ccc(C#Cc2ncnc3c2cc(C(=O)Nc2ccc(N(C)C)cc2)n3C)cc1
[1]
  IC50: 824 nM

## Cc1nc(C#Cc2ccnc(Cl)c2)c(C)n1-c1ccc(F)cc1 [BASIMGLURANT]
[1]
  IC50: 4.3 nM

## COc1ccc(C#Cc2ncnc3c2cc(C(=O)Nc2ccc(OC)cc2)n3C)cc1
[1]
  IC50: 84 nM

## COc1ccc(NC(=O)c2cc3c(C#Cc4ccccc4)ncnc3n2C)cc1
[1]
  IC50: 11.5 nM
Mus musculus [2]
  Activity: inactive
Mus musculus [3]
  Activity: Active
Mus musculus [4]
  Activity: Active
Mus musculus [5]
  Activity: Active
Mus musculus [6]
  Activity: Active
Mus musculus [7]
  Activity: Active
Mus musculus [8]
  Activity: Active
Mus musculus [9]
  Activity: Active
Mus musculus [10]
  Activity: Active
Mus musculus [11]
  Activity: Active
Mus musculus [12]
  Activity: Active
Mus musculus [13]
  Activity: Active
Mus musculus [14]
  Activity: Active
Mus musculus [15]
  Activity: Active
Mus musculus [16]
  Activity: Active
Mus musculus [17]
  Activity: Active
Mus musculus [18]
  Activity: Active
Mus musculus [19]
  Activity: Active
[20]
  Activity: Non-Toxic
[21]
  Activity: Non-Toxic
[22]
  Activity: Non-Toxic

## COc1ccc(NC(=O)c2cc3c(C#Cc4csc(C)n4)ncnc3n2C)cc1
[1]
  IC50: 236 nM

## COc1ccc(C#Cc2ncnc3c2cc(C(=O)Nc2ccc(F)cc2)n3C)cc1
[1]
  IC50: 482 nM

## Cc1ccc(C#Cc2ncnc3c2cc(C(=O)Nc2ccc(C(C)(C)C)cc2)n3C)cc1
[1]
  IC50: > 10000 nM

## Cc1ccc(NC(=O)c2cc3c(C#Cc4csc(C)n4)ncnc3n2C)cc1
[1]
  IC50: 5570 nM

## Cn1c(C(=O)Nc2ccc(I)cc2)cc2c(C#Cc3ccccc3)ncnc21
[1]
  IC50: 194 nM

## CN(C)c1ccc(NC(=O)c2cc3c(C#Cc4ccccc4)ncnc3n2C)cc1
[1]
  IC50: 125 nM

## COc1ccc(NC(=O)c2cc3c(C#Cc4ccc(C)cc4)ncnc3n2C)cc1
[1]
  IC50: 356 nM

## Cn1c(C(=O)Nc2ccc(F)cc2)cc2c(C#Cc3ccc(F)cc3)ncnc21
[1]
  IC50: 90.8 nM

## CN(C)c1ccc(NC(=O)c2cc3c(C#Cc4ccc(F)cc4)ncnc3n2C)cc1
[1]
  IC50: 135 nM

## Cn1c(C(=O)Nc2ccc(C(C)(C)C)cc2)cc2c(C#Cc3ccccn3)ncnc21
[1]
  IC50: 2030 nM
